Measurements reported in patent US8329675B2, “Inhibitors of fatty acid amide hydrolase” (Infinity Pharmaceuticals, Inc., priority 2006, dated 2012).

Target: T1, human FAAH (Homo sapiens, UniProt O00519)
T1 construct: host or cells: COS-7 cells, transient transfection; 13,000 g membrane fraction solubilised in 1% Triton X-100
T1 sequence (O00519 1-579): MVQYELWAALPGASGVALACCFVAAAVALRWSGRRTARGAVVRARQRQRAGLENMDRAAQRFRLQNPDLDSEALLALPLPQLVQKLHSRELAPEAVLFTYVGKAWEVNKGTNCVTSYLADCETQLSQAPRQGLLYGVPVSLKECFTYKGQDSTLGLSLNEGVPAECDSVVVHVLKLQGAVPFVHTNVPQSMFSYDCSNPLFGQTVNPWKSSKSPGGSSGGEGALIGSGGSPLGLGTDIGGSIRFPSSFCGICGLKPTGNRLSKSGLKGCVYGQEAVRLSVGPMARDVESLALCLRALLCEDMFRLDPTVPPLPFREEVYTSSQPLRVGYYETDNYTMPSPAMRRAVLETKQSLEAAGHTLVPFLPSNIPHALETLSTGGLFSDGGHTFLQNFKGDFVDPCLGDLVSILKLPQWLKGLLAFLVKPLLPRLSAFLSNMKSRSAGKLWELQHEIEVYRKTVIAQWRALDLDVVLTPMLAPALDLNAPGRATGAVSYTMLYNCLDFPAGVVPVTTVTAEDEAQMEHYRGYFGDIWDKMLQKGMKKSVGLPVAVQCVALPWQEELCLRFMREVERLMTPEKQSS
Experiment: Human FAAH biochemical inhibition assay (AMC arachidonoyl amide fluorescence)
Conditions: not given
Procedure: The resulting solution is added into one dish of 30-40% confluent COS-7 cells in a drop-wise manner. The COS-7 cell dish is subsequently incubated for 48 hours. The cells are then harvested.
Harvest procedure: Media was aspirated from the dishes and the cells rinsed with 10 mL PBS. The PBS was removed and 3 mLs of PBS added to the dish. The dish was scraped to resuspend the cells, and the subsequent cell suspension collected into a 15 ml conical tube. The cells were pelleted by centrifugation at 1200 rpm for 5 minutes in a bench top centrifuge. PBS was removed and the cell pellet snap frozen in liquid nitrogen, store at −80 C.
The pellets were dounce homogenized and then sonicated to produce cell extract. The cell extract was subsequently centrifuged at 1000 g to remove cellular debris. The pellet was discarded and the supernatant centrifuged at 13,000 g for 20 minutes. The pellet contained membrane bound FAAH. The supernatant was discarded and the pellet resolubilized.
(2) Re-solubilization: The fraction of interest, (13,000 g, membrane fraction) was re-suspended in re-suspension buffer (20 mM Hepes pH 7.8, 10% v/v Glycerol, 1 mM EDTA, 1% Triton X-100) (2.3 mL re-suspension and the sample incubated on ice for 1 hour and then centrifuged to at 13,000 g remove any particulate matter. The supernatant containing solubilized human FAAH was aliquoted and snap frozen in liquid nitrogen and stored at −80° C. until use.
FAAH reaction buffer: 50 mM Hepes (pH 7.5), 1 mM EDTA, 0.2% Triton X-100.
Human FAAH assay; Experimental Protocol: A 0.1 mg/mL Human FAAH solution is made up in FAAH reaction buffer, and 24 ul pipetted into a 384 well plate. To this is added 1 uL of a 3 fold serially diluted inhibitor from a DMSO stock solution. The FAAH solution and inhibitor are incubated for 30 minutes at room temperature. The FAAH reaction is initiated by the addition of 25 uL of 40 uM AMC Arachidonoyl Amide in FAAH reaction buffer, yielding a final reaction human FAAH preparation concentration of 0.05 mg/ml and AMC-Arachidonoyl substrate concentration of 20 uM, reaction volume 50 uL. The reaction is allowed to proceed for 4 hours at room temperature. […] The microtiter plate in read in the envision plate reader.

SMILES	Ki [nM]
NCCOB(c1ccccc1)c1ccccc1 [Compound I-125]	> 1000
OB(O)c1ccc(-c2ccccc2)cc1 [Compound I-187]	10 to 100

Same assay, conditions: Table 1, human FAAH (no asterisk); read-out: Activity (Ki)

Ki [nM]	SMILES
> 1000	OB(O)c1cccc2[nH]ccc12 [Compound I-100]
> 1000	OB(O)c1ccc2cc[nH]c2c1 [Compound I-101]
> 1000	Cn1ccc2ccc(B(O)O)cc21 [Compound I-102]
> 1000	OB(O)c1ccc2c(c1)CCO2 [Compound I-103]
10 to 1000	O=Cc1ccc(B(O)O)c2ccccc12 [Compound I-104]
10 to 1000	OB(O)c1ccccc1F [Compound I-105]
> 1000	OB(O)/C=C/c1ccccc1 [Compound I-106]
> 1000	OB(O)c1ccccc1 [Compound I-107]
> 1000	OB(O)c1ccc2nccn2c1 [Compound I-109]
10 to 1000	Cc1ccc(B(O)O)c(F)c1 [Compound I-110]
10 to 1000	OB(O)c1cccc2ccccc12 [Compound I-111]
> 1000	OB(O)c1cccc2cccnc12 [Compound I-112]
10 to 1000	OB(O)c1cccc2ncccc12 [Compound I-113]
> 1000	CC(C)(C)OC(=O)n1c(B(O)O)cc2cc(OCc3ccccc3)ccc21 [Compound I-114]
> 1000	CC(C)(C)OC(=O)n1c(B(O)O)cc2c(OCc3ccccc3)cccc21 [Compound I-115]
> 1000	Cn1c(B(O)O)cc2c(OCc3ccccc3)cccc21 [Compound I-116]
> 1000	COc1ccc(CN(Cc2ccc(OC)cc2)S(=O)(=O)c2ccc(B(O)O)cc2)cc1 [Compound I-117]
10 to 1000	COc1ccc(CN(Cc2ccccc2)S(=O)(=O)c2ccc(B(O)O)cc2)cc1 [Compound I-118]
10 to 1000	O=S(=O)(NCC1CCCCC1)c1ccc(B(O)O)cc1 [Compound I-119]
10 to 100	COc1ccc(CNS(=O)(=O)c2ccc(B(O)O)cc2)cc1 [Compound I-120]
10 to 100	Cc1nnc(-c2ccc(B(O)O)cc2)o1 [Compound I-121]
10 to 1000	COc1ccc(CNC(=O)Nc2ccc(B3OC(C)(C)C(C)(C)O3)cc2)cc1 [Compound I-122]
< 10	O=C(NCCc1ccccc1)c1ccc(B(O)O)cc1 [Compound I-123]

Ki [nM]	SMILES
10 to 100	OB(O)c1ccc(OCCn2cccn2)cc1 [Compound I-124]
> 1000	CC1(C)OB(c2ccc(/C=C\c3ccccc3)cc2)OC1(C)C [Compound I-126]
> 1000	OB(O)c1ccc2[nH]ccc2c1 [Compound I-128]
> 1000	O=C(c1ccc(Oc2ccccc2)cc1)C(F)(F)F [Compound I-132]
> 1000	CC(C)(C)OC(=O)n1c(B(O)O)cc2ccccc21 [Compound I-133]
10 to 100	Cc1cc(OCc2ccccc2)ccc1B(O)O [Compound I-134]
10 to 1000	OB(O)c1ccc(-c2cccs2)s1 [Compound I-135]
> 1000	O=Cc1ccc(-c2ccccc2)c(F)c1 [Compound I-136]
10 to 1000	CCCCOc1ccc(B(O)O)c(C)c1 [Compound I-138]
10 to 1000	OB(O)c1ccc(N2CCOCC2)cc1 [Compound I-139]
10 to 100	OB(O)c1cccc(OCc2ccccc2Cl)c1 [Compound I-140]
10 to 100	OB(O)c1cccc(OCc2cccc(Cl)c2)c1 [Compound I-141]
> 1000	OB(O)c1c(F)ccc(OCc2ccccc2)c1F [Compound I-143]
< 10	OB(O)c1ccc(OCc2ccccc2)cc1F [Compound I-146]
< 10	OB(O)c1ccc(OCc2cccc(Br)c2)c(Cl)c1 [Compound I-147]
< 10	Cc1cc(B(O)O)cc(C)c1OCc1cccc(Cl)c1 [Compound I-148]
< 10	OB(O)c1ccc(OCc2ccc(F)cc2)c(Cl)c1 [Compound I-152]
< 10	OB(O)c1ccc(OCc2cccc(Cl)c2)c(Cl)c1 [Compound I-154]
10 to 100	OB(O)c1ccc(OC2CCCCO2)cc1 (centres unmarked) [Compound I-158]
> 1000	OB(O)c1ccc2c(c1)Oc1ccccc1S2 [Compound I-159]
> 1000	OB(O)c1cc2ccccc2nc1Cl [Compound I-160]
< 10	CCCCCc1ccc(B(O)O)cc1 [Compound I-161]
< 10	OB(O)c1ccc(C2CCCCC2)cc1 [Compound I-162]

Ki [nM]	SMILES
10 to 100	O=C(Nc1ccc(B(O)O)cc1)OCc1ccccc1 [Compound I-163]
< 10	O=C(NCc1ccccc1)c1ccc(B(O)O)cc1 [Compound I-164]
> 1000	O=C(Nc1ccccc1)c1cccc(B(O)O)c1 [Compound I-165]
10 to 100	O=C(NCc1ccco1)c1ccc(B(O)O)cc1 [Compound I-167]
10 to 100	OB(O)c1ccc2cc(O)ccc2c1 [Compound I-168]
10 to 100	O=C(Nc1ccccc1)c1ccc(B(O)O)cc1 [Compound I-169]
10 to 1000	O=C(c1ccc(B(O)O)cc1)N1CCOCC1 [Compound I-171]
< 10	O=C(OCc1ccccc1)c1ccc(B(O)O)cc1 [Compound I-173]
> 1000	OB(O)c1cc2ccccc2o1 [Compound I-176]
10 to 100	OB(O)c1ccc2ccccc2c1 [Compound I-178]
10 to 1000	OB(O)c1ccc2c3c(cccc13)CC2 [Compound I-181]
> 1000	OB(O)c1ccccc1OCc1ccccc1 [Compound I-182]
10 to 100	COc1ccc2cc(B(O)O)ccc2c1 [Compound I-184]
< 10	OB(O)c1ccc(-c2ccccc2)cc1F [Compound I-185]
10 to 1000	OB(O)c1cccc(-c2ccccc2)c1 [Compound I-186]
< 10	OB(O)c1ccc(-c2ccccc2)c(F)c1 [Compound I-194]
10 to 100	OB(O)c1ccc(-c2ccccc2)s1 [Compound I-196]
10 to 100	OB(O)c1csc2ccccc12 [Compound I-197]
10 to 100	OB(O)c1ccc(-c2ccc(B(O)O)cc2)cc1 [Compound I-198]
< 10	O=C(c1ccccc1)c1ccc(B(O)O)cc1 [Compound I-202]
10 to 100	OB(O)c1ccc(OC(F)(F)F)cc1 [Compound I-204]

SMILES	Ki [nM]
OB(O)c1cc2ccccc2c2ccccc12 [Compound I-183]	> 1000

Same assay, conditions: Table 2, human FAAH (no asterisk); read-out: Activity (Ki)

Ki [nM]	SMILES
10 to 100	OB(O)c1ccc(OCc2cn(C3CCCC3)nn2)cc1F [II-1]
< 10	OB(O)c1ccc(-c2ccc(F)c(F)c2)cc1F [II-2]
< 10	Cc1ccc(-c2ccc(B(O)O)c(F)c2)cc1F [II-3]
< 10	CN(C)c1cccc(-c2ccc(B(O)O)c(F)c2)c1 [II-4]
< 10	O=C1C[N+]2(Cc3ccccc3)CC(=O)O[B-]2(c2ccc(-c3cccc(F)c3)cc2F)O1 (centres unmarked) [II-5]
< 10	OB(O)c1ccc(OCCc2ccccn2)cc1F [II-6]
< 10	OB(O)c1ccc(-c2nnc(-c3ccco3)o2)cc1 [II-7]
< 10	OB(O)c1ccc(OCCc2ccccc2)cc1F [II-8]
< 10	O=C(CCc1ccccc1)c1ccc(B(O)O)cc1 [II-9]
< 10	OB(O)c1ccc(-c2ccc(-c3ccccc3)c(F)c2)cc1F [II-10]
< 10	OB(O)c1ccc(-c2cccc(F)c2)cc1F [II-11]
< 10	OB(O)c1ccc(Oc2cccc(F)c2)cc1F [II-12]
10 to 100	OB(O)c1ccc(-c2cccnc2)cc1F [II-13]
10 to 100	O=C1c2ccccc2C(=O)N1Cc1ccc(B(O)O)cc1 [II-14]
10 to 100	O=C(c1ccccc1)c1cc2cc(B(O)O)ccc2o1 [II-15]
10 to 100	OB(O)c1ccc(-c2cccc3ccccc23)cc1F [II-16]
